From ChEMBL document CHEMBL4622904, “The discovery of azetidine-piperazine di-amides as potent, selective and reversible monoacylglycerol lipase (MAGL) inhibitors” (Bioorg Med Chem Lett, 2020)
Calls of active or inactive are those of the source. The calls are words filed in the database; no cut-off is given here.

Tests used:
[1] = Oral bioavailability in rat at 10 mg/kg; type: ADME, organism-based; conditions: in vivo
[2] = Tmax in rat at 10 mg/kg, po; type: ADME, organism-based; conditions: in vivo
[3] = Cmax in rat at 10 mg/kg, po; type: ADME, organism-based; set-up: dose 10 mg/kg, route oral; conditions: in vivo
Rattus norvegicus [4] = assay: Reversal of complete freund's adjuvant-induced thermal hyperalgesia in Sprague-Dawley rat model assessed as increase in paw withdrawal latency time at 30 mg/kg, po pre-exposed to thermal stimuli followed by CFA injection and subsequent compound administration; type: functional, organism-based; conditions: TDE = time-dependent effect
Rattus norvegicus [5] = assay: Reversal of complete freund's adjuvant-induced thermal hyperalgesia in Sprague-Dawley rat model assessed as increase in paw withdrawal latency time at 1 to 30 mg/kg, po pre-exposed to thermal stimuli followed by CFA injection and subsequent compound administration relative to control; type: functional
Rattus norvegicus [6] = assay: Reversal of complete freund's adjuvant-induced thermal hyperalgesia in Sprague-Dawley rat model assessed as increase in paw withdrawal latency time at 1 to 30 mg/kg, po pre-exposed to thermal stimuli followed by CFA injection and subsequent compound administration measured after 30 to 180 mins; type: functional, organism-based
Rattus norvegicus [7] = assay: Reversal of complete freund's adjuvant-induced thermal hyperalgesia in po dosed Sprague-Dawley rat model assessed as increase in paw withdrawal latency time pre-exposed to thermal stimuli followed by CFA injection and subsequent compound administration; type: functional
Rattus norvegicus [8] = assay: Reversal of complete freund's adjuvant-induced thermal hyperalgesia in Sprague-Dawley rat model assessed as increase in paw withdrawal latency time at 1 to 30 mg/kg, po pre-exposed to thermal stimuli followed by CFA injection and subsequent compound administration; type: functional
[9] = Drug concentration in blood of Sprague-Dawley rat at 1 mg/kg, po; type: ADME, organism-based; conditions: in vivo, read-out: Ct
[10] = Drug concentration in blood of Sprague-Dawley rat at 3 mg/kg, po; type: ADME, organism-based; conditions: in vivo, read-out: Ct
[11] = Drug concentration in blood of Sprague-Dawley rat at 10 mg/kg, po; type: ADME, organism-based; conditions: in vivo, read-out: Ct
[12] = Drug concentration in blood of Sprague-Dawley rat at 30 mg/kg, po; type: ADME, organism-based; conditions: in vivo, read-out: Ct
[13] = Drug concentration in brain of Sprague-Dawley rat at 1 mg/kg, po; type: ADME, organism-based; conditions: in vivo, read-out: Ct
[14] = Drug concentration in brain of Sprague-Dawley rat at 3 mg/kg, po; type: ADME, organism-based; conditions: in vivo, read-out: Ct
[15] = Drug concentration in brain of Sprague-Dawley rat at 10 mg/kg, po; type: ADME, organism-based; conditions: in vivo, read-out: Ct
[16] = Drug concentration in brain of Sprague-Dawley rat at 30 mg/kg, po; type: ADME, organism-based; conditions: in vivo, read-out: Ct
Rattus norvegicus [17] = assay: Effect on 2-AG level in brain of Sprague-Dawley rat 1 mg/kg, po (reference value: 11.96 nmol/g); type: functional
Rattus norvegicus [18] = assay: Effect on 2-AG level in brain of Sprague-Dawley rat 3 mg/kg, po (reference value: 11.96 nmol/g); type: functional
Rattus norvegicus [19] = assay: Effect on 2-AG level in brain of Sprague-Dawley rat 10 mg/kg, po (reference value: 11.96 nmol/g); type: functional
Rattus norvegicus [20] = assay: Effect on 2-AG level in brain of Sprague-Dawley rat 30 mg/kg, po (reference value: 11.96 nmol/g); type: functional
[21] = molecular target: T1, Fatty-acid amide hydrolase 1 (Homo sapiens, UniProt O00519); assay: Inhibition of FAAH (unknown origin)
T1 sequence (O00519 whole entry): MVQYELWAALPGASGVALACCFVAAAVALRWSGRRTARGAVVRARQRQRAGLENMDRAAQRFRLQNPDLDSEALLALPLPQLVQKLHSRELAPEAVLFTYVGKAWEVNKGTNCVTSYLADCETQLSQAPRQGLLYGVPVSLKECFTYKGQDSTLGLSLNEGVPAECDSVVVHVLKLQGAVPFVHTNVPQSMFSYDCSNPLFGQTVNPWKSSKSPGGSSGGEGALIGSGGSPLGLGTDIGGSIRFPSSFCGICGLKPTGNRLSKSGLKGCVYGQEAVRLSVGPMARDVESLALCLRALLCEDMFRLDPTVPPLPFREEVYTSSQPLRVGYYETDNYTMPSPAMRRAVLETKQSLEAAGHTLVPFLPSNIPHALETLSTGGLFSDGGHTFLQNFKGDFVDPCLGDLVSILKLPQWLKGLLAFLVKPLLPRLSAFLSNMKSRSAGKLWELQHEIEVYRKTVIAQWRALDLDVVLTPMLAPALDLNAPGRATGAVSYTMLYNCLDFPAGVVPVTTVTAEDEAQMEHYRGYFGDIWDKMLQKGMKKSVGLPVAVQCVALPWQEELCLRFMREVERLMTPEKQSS

Cannabinoid receptor 1 = Cannabinoid receptor 1 (Homo sapiens, UniProt P21554); assay: Binding affinity to CB1 receptor (unknown origin); type: ADME
Cannabinoid receptor 2 = Cannabinoid receptor 2 (Homo sapiens, UniProt P34972); assay: Binding affinity to CB2 receptor (unknown origin); type: ADME
Tryptase (Homo sapiens) = Tryptase (Homo sapiens) (UniProt Q9BZJ3+Q15661+Q9NRR2); assay: Inhibition of tryptase (unknown origin) at 10 uM relative to control; type: protein assay
Homo sapiens = species on record: Homo sapiens; assay: Inhibition of elastase (unknown origin) at 10 uM relative to control
[22] = molecular target: Plasminogen (Homo sapiens) (UniProt P00747); assay: Inhibition of plasmin (unknown origin) at 10 uM relative to control
[23] = molecular target: Chymotrypsin (Homo sapiens) (UniProt Q99895+P17538+P40313+Q6GPI1); assay: Inhibition of chymotrypsin (unknown origin) at 10 uM relative to control; type: protein assay
[24] = molecular target: Tissue-type plasminogen activator (Homo sapiens) (UniProt P00750); assay: Inhibition of TPA (unknown origin) at 10 uM relative to control
Chain of Tissue-type plasminogen activator (Homo sapiens) (P00750 36-562 limits assumed): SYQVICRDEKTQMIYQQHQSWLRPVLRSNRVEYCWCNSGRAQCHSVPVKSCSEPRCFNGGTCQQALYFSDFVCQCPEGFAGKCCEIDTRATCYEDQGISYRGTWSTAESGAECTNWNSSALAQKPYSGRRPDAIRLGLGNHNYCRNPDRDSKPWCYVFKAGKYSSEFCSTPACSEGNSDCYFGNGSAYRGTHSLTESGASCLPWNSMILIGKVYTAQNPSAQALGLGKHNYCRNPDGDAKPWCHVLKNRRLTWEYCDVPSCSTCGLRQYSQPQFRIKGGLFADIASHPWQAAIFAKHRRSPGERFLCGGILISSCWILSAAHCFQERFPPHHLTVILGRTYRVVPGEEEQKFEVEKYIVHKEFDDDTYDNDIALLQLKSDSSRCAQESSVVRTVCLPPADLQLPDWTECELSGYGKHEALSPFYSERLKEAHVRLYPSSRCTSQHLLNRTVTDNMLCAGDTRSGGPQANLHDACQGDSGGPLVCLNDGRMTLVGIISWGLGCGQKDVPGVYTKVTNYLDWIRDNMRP

Chain of Cannabinoid receptor 2 (P34972 whole entry): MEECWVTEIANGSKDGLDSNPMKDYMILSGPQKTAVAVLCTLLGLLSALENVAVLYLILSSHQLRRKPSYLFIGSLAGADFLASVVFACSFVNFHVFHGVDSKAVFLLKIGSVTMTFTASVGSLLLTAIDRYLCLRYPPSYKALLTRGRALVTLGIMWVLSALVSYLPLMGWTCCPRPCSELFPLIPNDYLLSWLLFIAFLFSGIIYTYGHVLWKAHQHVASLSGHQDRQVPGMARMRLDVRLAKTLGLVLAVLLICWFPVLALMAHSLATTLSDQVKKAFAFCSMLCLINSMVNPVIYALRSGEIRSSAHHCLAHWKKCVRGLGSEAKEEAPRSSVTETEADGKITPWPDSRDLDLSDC
Chain of Cannabinoid receptor 1 (P21554 whole entry): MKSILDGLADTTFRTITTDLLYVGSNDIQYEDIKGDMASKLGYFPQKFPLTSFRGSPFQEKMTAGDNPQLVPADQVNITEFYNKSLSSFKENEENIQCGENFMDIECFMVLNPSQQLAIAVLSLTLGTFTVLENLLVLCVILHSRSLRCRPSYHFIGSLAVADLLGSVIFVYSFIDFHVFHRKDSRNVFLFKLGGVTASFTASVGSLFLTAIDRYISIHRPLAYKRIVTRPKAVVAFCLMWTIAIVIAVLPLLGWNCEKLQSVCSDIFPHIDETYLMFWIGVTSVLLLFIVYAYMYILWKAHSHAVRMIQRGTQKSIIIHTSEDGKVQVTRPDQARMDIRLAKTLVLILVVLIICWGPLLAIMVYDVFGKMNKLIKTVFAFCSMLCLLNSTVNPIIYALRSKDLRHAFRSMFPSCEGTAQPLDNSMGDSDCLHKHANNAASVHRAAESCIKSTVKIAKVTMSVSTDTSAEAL
Chain of Plasminogen (Homo sapiens) (P00747 97-580 limits assumed): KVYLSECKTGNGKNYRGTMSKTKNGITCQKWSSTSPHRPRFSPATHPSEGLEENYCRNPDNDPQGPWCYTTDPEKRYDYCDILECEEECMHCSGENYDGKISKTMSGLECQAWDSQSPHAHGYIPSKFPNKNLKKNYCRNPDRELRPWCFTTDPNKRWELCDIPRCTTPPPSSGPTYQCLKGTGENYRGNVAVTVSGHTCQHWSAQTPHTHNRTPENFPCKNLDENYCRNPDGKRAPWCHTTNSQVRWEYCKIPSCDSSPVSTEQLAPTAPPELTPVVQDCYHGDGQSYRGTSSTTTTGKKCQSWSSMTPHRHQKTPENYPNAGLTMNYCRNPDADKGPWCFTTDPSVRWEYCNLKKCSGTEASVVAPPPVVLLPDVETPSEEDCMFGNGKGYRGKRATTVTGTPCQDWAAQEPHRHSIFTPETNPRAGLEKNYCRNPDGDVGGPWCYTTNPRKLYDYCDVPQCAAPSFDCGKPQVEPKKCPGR
Chain of Plasminogen (Homo sapiens) (P00747 581-810 limits assumed): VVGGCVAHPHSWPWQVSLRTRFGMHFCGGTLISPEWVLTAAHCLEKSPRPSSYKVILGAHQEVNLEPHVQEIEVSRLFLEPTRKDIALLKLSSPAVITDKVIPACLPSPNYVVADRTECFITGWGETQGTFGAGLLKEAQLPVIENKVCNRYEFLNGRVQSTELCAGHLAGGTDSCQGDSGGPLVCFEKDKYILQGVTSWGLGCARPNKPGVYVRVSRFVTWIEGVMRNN

## O=C(c1ccc2c(ccn2-c2ccc(F)cc2)c1)N1CC(N2CCN(C(=O)c3nccs3)CC2)C1
[1]
  bioavailability: 45%
[2]
  Tmax: 1.75 h
[3]
  Cmax: 710 ng/mL
Rattus norvegicus [4]
  Activity: Tde
Rattus norvegicus [5]
  Activity: 100%
Rattus norvegicus [6]
  Activity: Active
Rattus norvegicus [7]
  ED50: 3 mg/kg
Rattus norvegicus [8]
  Time: 100 min
[9]
  concentration: 24.9 nM
[10]
  concentration: 135 nM
[11]
  concentration: 519 nM
[12]
  concentration: 3070 nM
[13]
  concentration: 142 nM
[14]
  concentration: 339 nM
[15]
  concentration: 668 nM
[16]
  concentration: 3540 nM
Rattus norvegicus [17]
  Activity: 19.28 nmol/g
Rattus norvegicus [18]
  Activity: 33.01 nmol/g
Rattus norvegicus [19]
  Activity: 46.43 nmol/g
Rattus norvegicus [20]
  Activity: 108.4 nmol/g
[21]
  IC50: 4 µM
Cannabinoid receptor 1
  IC50: > 10 µM
Cannabinoid receptor 2
  IC50: > 10 µM
Tryptase (Homo sapiens)
  inhibition: 2%
Homo sapiens
  inhibition: 4%
[22]
  inhibition: 4%
[23]
  inhibition: -3%
[24]
  inhibition: 6%
